Experimental findings from patent publication US9763444B2, “Compositions and methods for repelling blood-sucking and biting insects, ticks and mites” (The United States of America, as represented by the …, priority 2013, dated 2017) are described below.

The subject of test [1] is female Aedes aegypti. Briefly: Knock down (KD) after forced contact with treated muslin cloth (insecticidal properties). The settings on record: 2 min forced exposure to treated cloth. The format is in vivo. As to the method:
The minimum effective dosage (MED) for repellency of 99% of mosquitoes was determined by wearing treated muslin cloth with varying concentrations of the chemical. At a surface concentration of 0.011 mg/cm^2, nearly all mosquitoes are repelled from the surface. The insecticidal properties required a much higher concentration of 2. All tests were conducted by forcing mosquitoes (5 per replicate×5 replicates) into contact with treated muslin cloth.

The subject of test [2] is Ae. aegypti. As to the kind of experiment: Complete Protection Time test on treated cloth (duration of protection). The format is in vivo, Aedes aegypti. The settings on record: Dosage 0.75 mg/cm^2 on cloth; for Duration of protection against Ae. aegypti, M-3 Days Protection: subject M-3. Here is the method: Bioassay for mosquito repellent activity: Repellency screening test for experimental chemicals were carried out to identify candidates that might be useful repellents. The repellent efficacy was compared to that of the standard repellent, DEET. Experimental compounds were assessed in one of two ways: (1) a range of concentration was evaluated to determine the minimum effective dosage (MED) which was the concentration threshold of where the repellent began to fail and allowed bites, or (2) a predetermined concentration of each repellent was applied to cloth and the activity was evaluated over several days (or in some cases months) (Katritzky, A. R., et al., Proc. Nat. Acad. Sci. (US), 105, 7359-7364 (2008); Katritzky, A. R., et al., Journal of Med. Entomol., 47: 924-938 (2010)). When conducting assays for repellency, a failure point was also predetermined for those measurements. Since experiments described herein used about 500 female mosquitoes per test, the failure point was set at 1% (equal to 5 bites) received during a test interval. From 3 to 5 volunteers participated in the screening of each set of chemicals. Complete Protection Time Test: Complete protection time (CPT) on treated cloth is a method of screening that is used to determine the repellent duration for experimental chemicals that have not been examined for safe use on humans. The standard repellent DEET was used as a positive control as a benchmark by which to compare the repellents. Experimental compounds were prepared in solution by combining 0.075 g of experimental chemical with 1 mL of acetone in a 7.1-mL screwtop glass vial. The same concentration level of DEET was also prepared in this way to serve as a control and a comparison for relative repellency. A 50 cm^2 (5 cm×10 cm) patch of muslin cloth was rolled lengthwise and placed into each of the glass vials and sealed with a screwtop so it soaked up the solution. Just prior to the experiment, the pieces of treated cloth were removed from the vials, affixed to card stock tabs (5 cm×3 cm) with staples, and hung with masking tape on a rack to dry and allowed the volatile acetone to evaporate. Similar to the MED tests, volunteers wore a latex glove over their hands, a nylon stocking over their arm, and then wrapped a plastic Velcro-sealed sleeve over their entire forearm with a 32 cm^2 (4 cm×8 cm) window cut-out to allow mosquitoes to bite through. Dried cloth patches were stretched across the window in the plastic sleeve and held in place with masking tape. Volunteers placed their sleeve-covered arms into a screened cage for a one minute period with approximately 500 female Ae. aegypti mosquitoes that had been preselected for host-seeking behavior using a draw box. A cloth patch that received a 1% bite through level, equal to 5 mosquitoes that bit out of 500 mosquitoes, was considered a failure at that concentration. If 0-4 bites were received, then the treated cloth was still considered to be repellent at that concentration. The duration was recorded as the number of days an experimental chemical received a passing result, with day 0 being the day the sample was first dried. […] As with the tests conducted to determine CPT, volunteers in the study provided informed consent (IRB protocol #636-2005). The protocol was approved by the University of Florida Human Use Institutional Review Board.

Each structure is given as a SMILES string.

In the case of `CC1(C)C=Cc2c(CO)cccc2O1` [Compound 2], in test [1] (knock down counted after 1 h), the “KD100 @ 1 h, surface concentration” value is reported as 15.38 mg/cm^2. In addition, the “KD100 @ 5 h, surface concentration” value in test [1] (knock down counted after 5 h) came to 7.69 mg/cm^2. Besides, the “KD100 @ 8 h, surface concentration” value in test [1] (knock down counted after 8 h) was determined as 0.96 mg/cm^2. Further, in test [2], the “Duration of protection, Proportion to DEET” value is 3.00 and the “Duration of protection against Ae. aegypti, M-3 Days Protection” value came out at 6 days.
With `CCN(CC)C(=O)c1cccc(C)c1` [DEET, N,N-diethyl-3-methylbenzamide, reference compound], in test [2], the “Duration of protection, Proportion to DEET” value is 1.00 and the “Duration of protection against Ae. aegypti, M-3 Days Protection” value was found to be 2 days.
